Data on 2 substances can be found in article PMC9864008, “Novel Black Seed Polysaccharide Extract-g-Poly (Acrylate) pH-Responsive Hydrogel Nanocomposites for Safe Oral Insulin Delivery: Development, In Vitro, In Vivo and Toxicological Evaluation” (Pharmaceutics, 2022).

For data set [1] the following is noted: rabbit, in vivo.
Experimental: After diabetes induction, the rabbits were placed into 5 groups (n = 6) randomly. The first group was orally administered with ground Ins-BA hydrogel (10 IU/kg) by an oral gavage needle with 5 mL of water to ensure complete dose administration. The second group was given orally the ground Ins-Mmt-BA hydrogel NC (10 IU/kg). The third group, acting as a positive control, was subcutaneously (SC) injected with standard Humulin-R® insulin (5 IU/kg). The fourth group was orally administered with insulin solution (10 IU/kg). The fifth group, acting as a negative control was administered with blank hydrogel. Blood samples were taken at specified intervals (0, 1, 2, 3, 4, 6, 8, 10, 12, 16, 20, 22 and 24 h) from the jugular vein and collected in EDTA containing sample collection tubes. The blood samples were then centrifuged at 3500 rpm for 15 min and separated plasma samples were stored at –20 °C for further detection of insulin by the HPLC method. At the same intervals, blood samples were also checked for blood glucose levels by a glucometer for observing the pharmacodynamic effect of the administered dosage forms [8].
For pharmacokinetic evaluation, a previously developed HPLC method for insulin detection in plasma was used with slight modifications [37]. The HPLC system (Hitachi, Tokyo, Japan) comprising a Gilson delivery pump with a 6-valved sample injection port fitted with a 20 µL sample loop, A UV-visible detector, thermostat column and chromato-integrator were used for sample analysis. The RP-C18 (150 × 4.60 mm ID, 5 µm) analytical column (Phenomenex, Torrance, CA, USA) was used. The mobile phase was prepared by 0.2 M Na2SO4 solution with pH adjusted to 2.3 with orthophosphoric acid mixed with acetonitrile (74:26) and filtered through 0.5 µm membrane filters and sonicated for 10 min to remove dissolved gas bubbles. The stock solution of insulin at 140 µg/mL strength was made in PBS. The serial dilutions of insulin solution (3.5 µg/mL to 140 µg/mL) after filtering through a 0.2 µm membrane filter were injected into a chromatographic column to find the linearity curve to develop a method for insulin detection. The linearity curve with the same serial dilutions of insulin in plasma was also determined. For sample preparation from collected plasma, 200 µL of thawed plasma (collected at different intervals) was mixed with 800 µL of n-hexane:dichloromethane (1:1). The mixture was centrifuged for 10 min at 3500 rpm (Hitachi Zentrifugen EBA 20, Hitachi Ltd., Tokyo, Japan). The supernatant with extracted insulin was used after filtering through a 0.22 µm membrane filter (Sartorius, Göttingen, Germany) for injection into the HPLC system. […]
For data set [2] the following is noted: cited from earlier work. An excerpt: Humulin® R U-100 (containing human insulin with the strength 100 units/mL) is a sterile, colourless and aqueous solution formulation. It is a short-acting polypeptide hormone produced by an Escherichia coli strain obtained by using recombinant DNA technology. Firstly, it controls blood sugar by inhibiting hepatic glucose production, and secondly, it stimulates glucose uptake from peripheral skeletal muscles and fat cells. When administered subcutaneously (SC), it starts showing therapeutic response within 30 min and its effect lasts up to 8h, with the dose in the range of 0.05–0.4 units/kg. W ...

In data set [3] the test system is diabetic male albino rabbits. Kind of data set: In vivo pharmacodynamics: blood glucose level in alloxan-induced diabetic rabbits. Also noted: species or system rabbit. The conditions noted are these: for Blood glucose level (% of initial, % BGL) at maximum decrease: n = 6, oral 10 IU/kg or SC 5 IU/kg, SC standard within first 3 h, Ins-BA hydrogel at 8 h, Ins-Mmt-BA hydrogel NC at 20 h. Here is the method:
A crossover study was designed to evaluate the insulin intestinal absorption and its release pattern over time from the developed BA hydrogels versus Ins-Mmt-BA hydrogel NCs. For this purpose, under the approval of IREC vide notification number IREC-2020-22, strictly following OECD guidelines, a total of 30 healthy male albino rabbits (≥2 kg weight) were taken. All animals were exposed to 12 h light and darkness cycles for 7 days to acclimatize with ambient atmosphere. For diabetes induction, all rabbits were administered alloxan monohydrate injection (Sigma-Aldrich, Germany) in a single intraperitoneal dose of 150 mg/kg. A 5% glucose solution was administered ad libitum for 24 h to avoid alloxan-induced hypoglycemia. To confirm diabetes induction all, animals’ blood was withdrawn daily from the ear marginal vein for checking blood glucose levels with the help of a glucometer and glucose strips (ACCU-CHEK®, Roche, Basel, Switzerland) for 10 days. Rabbits displaying fasting blood glucose levels higher than 150 mg/dL were considered as diabetic.

[4] abbreviates: intravenous, dose 0.1–0.2 units/kg.
The mark [5] stands for this setting: subcutaneous, dose 0.05–0.4 units/kg.

In data set [1], “SC insulin standard: standard Humulin-R human insulin injection, 100 IU/mL, given subcutaneously” returned a Cl of 13.361 mL/h, a Vd of 67.326 mL, a t1/2 of 3.493 h and a tmax of 3 h. For the same substance, in data set [2] (setting [4]), the “Duration of effect after IV administration” value is “up to 4 h” and the “Start of pharmacologic effect after IV administration” value was 10–15 min. Besides, in data set [2] (setting [5]), the “Duration of effect after SC administration” value was “up to 8 h” and the “Start of therapeutic response after SC administration” value was no more than 30 min. For the same substance, in data set [3] (n = 6, SC 5 IU/kg, 8 h interval), the “Blood glucose level (% of initial, % BGL) at 8 h” value amounted to 59.67%. Also, the “Blood glucose level (% of initial, % BGL) at maximum decrease” value in data set [3] is 13.55%.
On to “oral insulin solution: insulin solution administered orally (10 IU/kg)”, for which the “Blood glucose level (% of initial, % BGL) at maximum decrease” value in data set [3] is “no significant decrease in % BGL”.
